In PubChem BioAssay AID1996:
≈ marks a conversion by molar mass, not a printed value.

Conditions: buffer; pH 7.4; 200.0 µM

Going from `Brc1ccccc1CN1CCC(Cc2ccccc2)CC1` to `OC(CC#CCN1CCCC1)(c1ccccc1)c1ccccc1`, the solubility kinetic rises from 2.6 µg/mL (≈ 7.55 µM) to 36.7 µg/mL (≈ 120 µM) (14-fold).

Compared with `CCc1noc(C)c1C(=O)Nc1ccc(C(F)(F)F)cc1`, `Cc1cc(C(=O)Nc2ccc(Br)cc2)cs1` is 11-fold lower in solubility kinetic: 7.5 µg/mL (≈ 25.1 µM) for the first, 0.7 µg/mL (≈ 2.36 µM) for the second.

`Cc1ccc(-c2nc(C=Nc3ccccc3)c(O)o2)cc1` and `Cc1ccc(OCCn2cc(C=O)c3ccccc32)cc1` are within 1.5-fold of each other in solubility kinetic: 4.7 µg/mL (≈ 16.9 µM) for the first, 5.3 µg/mL (≈ 19 µM) for the second.

`Cc1cccc(C)c1OCCN1CCOCC1.O=C(O)C(=O)O` and `Cc1cccc(C(=S)N2CCOCC2)n1` cannot be ordered by solubility kinetic: 42.1 µg/mL for the first, greater than 33.3 µg/mL for the second.

Going from `Cc1ccc(C)c(Nc2nc(-c3cccnc3)cs2)c1` to `COc1cc(C(=O)Nc2cc(C)ccc2C)ccc1OCc1c(C)noc1C`, the solubility kinetic rises from 0.9 µg/mL (≈ 3.2 µM) to 7.1 µg/mL (≈ 18.7 µM) (7.9-fold).

`Cc1ccc(NC(=S)N2CCCCC2)cc1C` and `Cc1ccc(C)c(NC(=O)NCCN2CCCCC2)c1` are within 1.5-fold of each other in solubility kinetic: 30.5 µg/mL (≈ 123 µM) for the first, 35.6 µg/mL (≈ 129 µM) for the second.

Going from `Nc1cccc2c1C(=O)N(CCOc1ccc(F)cc1)C2=O` to `CCCCOc1ccc(C2(C)NC(=O)NC2=O)cc1` (stereo unspecified), the solubility kinetic rises from 8.4 µg/mL (≈ 28 µM) to 31.2 µg/mL (≈ 119 µM) (3.7-fold).

Going from `CCCCc1nc2sc3c(=O)[nH]cnc3c2c2c1CCCC2` to `Cc1cccc(-c2noc(CCC(=O)NC3CCCC3)n2)c1`, the solubility kinetic rises from less than 0.2 µg/mL to greater than 44.9 µg/mL.

`COc1ccc(C2CC(C)=C(C#N)S(=O)(=O)C2C#N)cc1` (stereo unspecified) and `COc1ccc(NC(=O)C2COc3ccccc3O2)cc1` (stereo unspecified) cannot be ordered by solubility kinetic: greater than 45.4 µg/mL for the first, greater than 42.8 µg/mL for the second.

`O=C(CCCl)N1CCCC2(CCCCC2)C1` and `N#Cc1ccc(NC(=O)CN2CCCCCC2)cc1Cl` are within 1.5-fold of each other in solubility kinetic: 30.1 µg/mL (≈ 123 µM) for the first, 26.4 µg/mL (≈ 90.5 µM) for the second.

`CCN(Cc1ccncc1)C(=O)CCc1ccccc1` and `CNC(=S)NCCc1ccccc1` are within 1.5-fold of each other in solubility kinetic: 33.4 µg/mL (≈ 124 µM) for the first, 25.6 µg/mL (≈ 132 µM) for the second.

First: O=C(COC(=O)COc1ccc(Cl)cc1)NCc1ccc2c(c1)OCO2
Second: O=C1COc2ccccc2N1Cc1ccc(Cl)cc1
The solubility kinetic of the first is 4.5-fold lower: 2.3 µg/mL (≈ 6.09 µM) for the first, 10.3 µg/mL (≈ 37.6 µM) for the second.

`O=C(Oc1ccc(Oc2ccccc2)cc1)N1CCC(O)CC1` and `CC(=O)Oc1ccc(-c2cccc(C(=O)N3CCCCC3)c2)cc1` are within 1.5-fold of each other in solubility kinetic: 34.9 µg/mL (≈ 111 µM) for the first, 40.8 µg/mL (≈ 126 µM) for the second.

First: O=C(O)c1ccc(Cn2c(=S)[nH]c3cc(Cl)ccc3c2=O)cc1
Second: Cc1ccc(C(=O)COC(=O)c2cn3ccccc3n2)cc1
The solubility kinetic of the first is higher: greater than 52 µg/mL for the first, 4.1 µg/mL (≈ 13.9 µM) for the second.

First: CCCc1cc(=O)[nH]c(SCC(=O)Nc2cc(S(=O)(=O)N3CCOCC3)ccc2N(CC)CC)n1
Second: CC1CC1C(=O)OCC(=O)Nc1cc(S(=O)(=O)N2CCCCC2)ccc1Cl (stereo unspecified)
The solubility kinetic of the first is higher: greater than 78.6 µg/mL for the first, 31.1 µg/mL (≈ 75 µM) for the second.

`Cc1cccc(CC(=O)NC2CCN(C)CC2)c1` and `Cc1cc(C)cc(OCC(=O)OCC(=O)NC2CCCC2)c1` cannot be ordered by solubility kinetic: greater than 37 µg/mL for the first, 38.5 µg/mL (≈ 126 µM) for the second.

Compared with `COc1ccccc1N(CC(=O)N1CCCC1)S(=O)(=O)c1cc([N+](=O)[O-])ccc1Cl`, `COc1ccc([N+](=O)[O-])cc1Nc1c2ccccc2nc2ccccc12` is lower in solubility kinetic: 6.8 µg/mL (≈ 15 µM) for the first, less than 0.2 µg/mL for the second.

`COC(=O)c1ccc(S(=O)(=O)N2CCOCC2)o1` and `COc1ccc(CN2CCCCCC2)cc1Br` cannot be ordered by solubility kinetic: greater than 41.3 µg/mL for the first, 43.3 µg/mL (≈ 145 µM) for the second.

First: CCOC(=O)c1cn2c(C)cccc2n1
Second: Cc1sc2ncnc(SCC(=O)Nc3cccc(S(N)(=O)=O)c3)c2c1C
The solubility kinetic of the first is higher: greater than 30.6 µg/mL for the first, 5.3 µg/mL (≈ 13 µM) for the second.

Compared with `Cc1ccnc(N2C(=O)c3ccc([N+](=O)[O-])cc3C2=O)c1`, `Cc1cc(=O)oc2cc(NC(=O)Cc3ccccc3[N+](=O)[O-])ccc12` is lower in solubility kinetic: greater than 42.5 µg/mL for the first, 0.9 µg/mL (≈ 2.66 µM) for the second.

Going from `O=C(Nc1ccc2oc(=O)ccc2c1)c1ccc(-c2cccc([N+](=O)[O-])c2)o1` to `COc1ccc(C(=O)Nc2ccc(C(=O)Nc3cccnc3)cc2)cc1`, the solubility kinetic falls from 3.5 µg/mL (≈ 9.3 µM) to 0.6 µg/mL (≈ 1.73 µM) (5.8-fold).

`Cc1cccc(NC(=O)c2cccc(N3C(=O)CCC3=O)c2)c1` and `CCC(=O)Nc1ccc2c(c1)N(C(C)=O)c1ccccc1CC2` cannot be ordered by solubility kinetic: greater than 46.3 µg/mL for the first, greater than 46.3 µg/mL for the second.

Compared with `CCc1ccc(NC(=O)C(C)OC(=O)/C=C/c2ccc(O)c(OC)c2)cc1` (stereo unspecified), `COc1ccccc1Oc1ccc(NC(=O)Cc2ccccc2)cc1` is lower in solubility kinetic: 4.1 µg/mL (≈ 11.1 µM) for the first, less than 0.7 µg/mL for the second.

`O=c1oc2ccccc2c(Cl)c1CN1CCCCC1` and `O=C1CCCc2ccccc2N1Cc1cccc(F)c1` are within 1.5-fold of each other in solubility kinetic: 41.4 µg/mL (≈ 149 µM) for the first, 36.4 µg/mL (≈ 135 µM) for the second.

`Nc1ccc(CCN2CCN(c3cccc(C(F)(F)F)c3)CC2)cc1` and `Cc1cccc(N2CCN(C(=O)[C@H](C)N3C(=O)C4CC=CCC4C3=O)CC2)c1C` (stereo partly specified) cannot be ordered by solubility kinetic: greater than 52.4 µg/mL for the first, greater than 59.3 µg/mL for the second.

Going from `CCOC(=O)N1CCN(C(=O)COc2cccc3c2CCN(CC)C3=O)CC1` to `CCOc1ccc(C(=O)OCC(=O)NC2CCCC2)cc1OCC`, the solubility kinetic falls from 44.5 µg/mL (≈ 114 µM) to 17.7 µg/mL (≈ 52.8 µM) (2.5-fold).

`CC1(C)Cc2c(sc(NC(=O)/C=C/C(=O)O)c2C#N)CO1` and `Cc1cc(Br)cc2c1NC(=O)C2(O)CC(=O)c1ccco1` (stereo unspecified) are within 1.5-fold of each other in solubility kinetic: 41.4 µg/mL (≈ 135 µM) for the first, 47.7 µg/mL (≈ 136 µM) for the second.

First: CC(C)(C)NC(=O)N1CCn2cccc2C1c1ccccc1F (stereo unspecified)
Second: COc1ccccc1/C=C1\N=C(C(C)(C)C)OC1=O
The solubility kinetic of the first is 13-fold higher: 40 µg/mL (≈ 127 µM) for the first, 3 µg/mL (≈ 11.6 µM) for the second.

Going from `CCC1C(=O)N=C(SCC(=O)Nc2nc3ccccc3s2)NC1=O` (stereo unspecified) to `COc1ccccc1-c1noc(CCCC(=O)NC2CCCCC2)n1`, the solubility kinetic falls from greater than 54.4 µg/mL to 48.5 µg/mL (≈ 141 µM).

Compared with `C=CCC(CC=C)(C(N)=O)c1ccccc1`, `O=C(Nc1cccc2cccnc12)c1cc(F)c(F)cc1Cl` is lower in solubility kinetic: 31.6 µg/mL (≈ 147 µM) for the first, less than 0.3 µg/mL for the second.

With `NC(=S)NC1CCS(=O)(=O)C1` (stereo unspecified) the solubility kinetic was greater than 29.1 µg/mL.
